Measurements: patent US8236492B2 (priority 2003, dated 2012)

The compounds below were run on ileal fluid dependant organism (IFDO).
Assay type: cell-based

SMILES	Log10 Reduction of Colonies	efficacy of LpH phenols tested at equivocal concentrations
Cc1cc(O)ccc1Cl [p-Chloro-m-cresol]	4.3	
Cc1ccc(O)cc1 [p-Cresol]	3.7	
Oc1ccccc1 [Phenol]	3.6	
Oc1cc(Cl)ccc1Oc1ccc(Cl)cc1Cl [Triclosan]	2.7	
Cc1cccc(O)c1C [2,3-Dimethylphenol]	4.1	
CCC(C)(C)c1ccc(O)cc1 [PTAP, p-tertiary-amylphenol]		less effective
Cc1ccc(C(C)C)c(O)c1 [Thymol]	3.2	
Oc1cc(Cl)c(Cl)cc1Cl [2,4,5-Trichlorophenol]	4.9	
Oc1ccc(Cl)cc1Cc1ccccc1 [o-Benzyl-p-chlorophenol]	4.7	optimal
Oc1ccccc1-c1ccccc1 [o-Phenylphenol]	4.8	optimal
Oc1c(Cl)cc(Cl)c(Cl)c1Cc1c(O)c(Cl)cc(Cl)c1Cl [Hexachlorophene]	3.6	
Oc1ccc(Cl)cc1Cc1cc(Cl)ccc1O [2,2-Methylenebis(4-chlorophenol)]	3.8	
